Consider 1 compound from PMC7317179 (The Korean Journal of Physiology & Pharmacology : …, 2020).

The target in this assay is T1, anoctamin-1 (hANO1, TMEM16A) (Homo sapiens, UniProt Q5XXA6).
T1 sequence (Q5XXA6 1-986): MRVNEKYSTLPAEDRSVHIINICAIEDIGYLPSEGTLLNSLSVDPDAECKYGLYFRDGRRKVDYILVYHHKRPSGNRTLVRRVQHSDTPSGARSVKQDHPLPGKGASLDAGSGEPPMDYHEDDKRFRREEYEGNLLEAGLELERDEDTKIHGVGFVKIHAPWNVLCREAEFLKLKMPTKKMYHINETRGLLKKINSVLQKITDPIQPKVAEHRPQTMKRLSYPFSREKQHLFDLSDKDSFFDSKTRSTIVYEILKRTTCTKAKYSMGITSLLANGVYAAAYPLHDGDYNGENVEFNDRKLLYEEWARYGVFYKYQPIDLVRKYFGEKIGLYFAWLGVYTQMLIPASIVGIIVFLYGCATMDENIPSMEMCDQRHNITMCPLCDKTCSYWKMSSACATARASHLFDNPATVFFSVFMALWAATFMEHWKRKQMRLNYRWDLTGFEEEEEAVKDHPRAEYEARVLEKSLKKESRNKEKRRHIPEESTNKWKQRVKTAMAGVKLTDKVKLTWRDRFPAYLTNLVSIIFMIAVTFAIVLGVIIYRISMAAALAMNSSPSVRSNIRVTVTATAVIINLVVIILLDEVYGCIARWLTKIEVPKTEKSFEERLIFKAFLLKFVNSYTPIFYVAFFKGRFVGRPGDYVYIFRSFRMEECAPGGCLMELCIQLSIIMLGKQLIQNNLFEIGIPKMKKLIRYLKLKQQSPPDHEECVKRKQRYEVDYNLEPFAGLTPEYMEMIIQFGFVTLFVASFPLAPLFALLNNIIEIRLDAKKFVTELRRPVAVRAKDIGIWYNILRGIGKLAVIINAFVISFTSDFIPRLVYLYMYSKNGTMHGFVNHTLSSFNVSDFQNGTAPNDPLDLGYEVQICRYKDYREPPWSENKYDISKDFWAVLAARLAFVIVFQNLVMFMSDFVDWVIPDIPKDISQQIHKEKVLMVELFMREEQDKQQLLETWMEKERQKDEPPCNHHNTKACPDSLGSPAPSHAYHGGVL
Put plainly: whole-cell patch clamp, hANO1-HEK293T. Format: cell-based.

For the compound `O=c1cc(-c2ccc(O)c(O)c2)oc2cc(O)cc(O)c12` [compound 5, luteolin], half-maximal inhibition (IC50) required 27.9 ± 1.61 µM.
